Literature values as cited in paper PMC9825171 (Nucleic Acids Research, 2022).

Tested on: interactions of both NICD and SHARP with RBPJ
Settings: cellular assays; ref [63]

For `Cn1nccc1-c1ccc(C(N)=O)c(Oc2ccccc2F)c1` [RIN1], the “effect on RBPJ-coregulator interactions, in words” value is listed as “block the interactions of both NICD and SHARP with RBPJ”.
